Some test systems named below: CAKI-1; CCRF-CEM; HCT-116; HCT-15; HL-60; HOP-62; IGROV-1; MOLT-4; OVCAR-3; RPMI-8226; SF-268; SF-295; SK-MEL-2; SK-MEL-5; SN12C; SNB-19; SW-620; UACC-257; UACC-62; KM12.
Holding throughout (assay): NCI tumour cell line growth inhibition, 48 h

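Method: 48-hour compound exposure of cells in 96-well plates, five concentrations, linear interpolation of endpoints. GI50 is the concentration that inhibits growth by half.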 The source made the active and inactive calls. Cut-off read from the data, not from the text of the source: active = GI50 up to about 1.1 µM and inactive = higher. Where only a bound is given, the exact number is not on record here.

On to `CCCCN1C=CN2c3nc4cc(C)c(C)cc4n3C(C(=O)OC)=C(C(=O)OC)C12` (stereo not drawn), for which the GI50 with CAKI-1 is > 100 µM (inactive); in the test with CCRF-CEM, > 100 µM (inactive); in the test on HCT-116, > 100 µM (inactive); in the test on HCT-15, more than 100 µM; in the test with HL-60, > 100 µM (inactive); with HOP-62, > 100 µM (inactive). The GI50 in the test with IGROV-1, in the test on MOLT-4, with OVCAR-3, with RPMI-8226, with SF-268 and in the test with SF-295 was > 100 µM (inactive) each time. Moreover, the GI50 in the test on SK-MEL-2, with SK-MEL-5, with SN12C, with SNB-19, with SW-620 and in the test on UACC-257 was > 100 µM (inactive) each time. Moreover, in the test on UACC-62, the GI50 is > 100 µM (inactive).

In the case of `CN(C)CCNc1c([N+](=O)[O-])cc2c3c(cccc13)C(=O)N(CCN(C)C)C2=O`, the GI50 in the test with CAKI-1 was 2.13 µM (inactive); in the test with CCRF-CEM, 0.893 µM (active); in the test with HCT-116 it was 0.552 µM (active); in the test with HCT-15, 1.7 µM; in the test on HL-60, 1.68 µM (inactive); with HOP-62, 2.03 µM (inactive). Further, the GI50 was 1.73 µM (inactive) in the test on IGROV-1; 8.18 µM (inactive) with KM12; 0.476 µM (active) in the test with MOLT-4; 1.79 µM (inactive) in the test on OVCAR-3; 2.33 µM (inactive) with RPMI-8226; 2.2 µM (inactive) in the test with SF-268. In addition, the GI50 with SF-295 was 1.24 µM (inactive); in the test on SK-MEL-2, 1.77 µM (inactive); in the test with SK-MEL-5 it was 2.18 µM (inactive); with SN12C, 1.46 µM (inactive); in the test with SNB-19, 1.59 µM (inactive); in the test with SW-620 it was 0.593 µM (active). The values for the GI50 with UACC-257 and in the test on UACC-62 were 2.08 µM (inactive) and 1.75 µM (inactive), respectively.

Turning to `COC(=O)C1=C(OC(=O)/C(=C/c2ccc(Cl)cc2)c2ccc(Cl)cc2)C(C(=O)OC)[C@]2(O)[C@@H](C(=O)OC)[C@H]1C[C@@H](c1ccccc1)[C@@H]2C(=O)OC` (stereo partly drawn), the GI50 in the test with CAKI-1 was > 100 µM (inactive); in the test with HCT-116, > 100 µM (inactive); in the test with HCT-15, more than 100 µM; in the test with HL-60 it was > 100 µM (inactive); in the test on HOP-62, 32.7 µM (inactive); in the test on IGROV-1 it was 38.8 µM (inactive). Also, the GI50 in the test with KM12 is > 100 µM (inactive); in the test with MOLT-4, 2.22 µM (inactive); in the test on OVCAR-3, 27 µM (inactive); in the test on SF-268, > 100 µM (inactive); in the test with SF-295 it was 29.6 µM (inactive); with SK-MEL-2, > 100 µM (inactive). For the same compound, the GI50 was > 100 µM (inactive) in the test on SK-MEL-5; > 100 µM (inactive) in the test with SN12C; 59 µM (inactive) in the test with SNB-19; > 100 µM (inactive) in the test with SW-620; > 100 µM (inactive) in the test with UACC-257; > 100 µM (inactive) in the test on UACC-62.

With `O=C(O)CCC(NC(=O)c1ccc(Nc2cnc3cc(C(F)(F)F)ccc3n2)cc1)C(=O)O` (stereo not drawn), the GI50 in the test with CCRF-CEM is > 100 µM (inactive); in the test with HCT-116, > 100 µM (inactive); in the test with HCT-15 it was more than 100 µM; in the test on HL-60 it was > 100 µM (inactive); in the test with HOP-62, > 100 µM (inactive); with IGROV-1, > 100 µM (inactive). For the same compound, the GI50 with KM12, with MOLT-4, with OVCAR-3, in the test on RPMI-8226, with SF-268 and in the test on SF-295 was > 100 µM (inactive) in each case. Further, the GI50 was > 100 µM (inactive) in the test with SK-MEL-2; > 100 µM (inactive) in the test with SK-MEL-5; > 100 µM (inactive) in the test with SN12C; > 81.5 µM (inactive) in the test with SNB-19; > 100 µM (inactive) in the test with SW-620; > 100 µM (inactive) with UACC-257. Moreover, the GI50 with UACC-62 was > 100 µM (inactive).

Turning to `O=C1C=CC[C@H]2O[C@@H](COC(=O)Cc3ccccc3)C[C@H]2O1`, the GI50 with CAKI-1 was 38.5 µM (inactive); with CCRF-CEM, 41.4 µM (inactive); in the test on HCT-15, 18.4 µM; in the test with HL-60, 16.5 µM (inactive); with HOP-62 it was 41.2 µM (inactive); in the test with IGROV-1 it was 20 µM (inactive). The GI50 is 18.2 µM (inactive) in the test with KM12; 25.4 µM (inactive) in the test on MOLT-4; 38.6 µM (inactive) in the test on OVCAR-3; 28.8 µM (inactive) in the test on RPMI-8226; 25 µM (inactive) in the test with SF-268; 30.4 µM (inactive) with SF-295. In addition, the GI50 with SK-MEL-2 was 51.5 µM (inactive); in the test on SK-MEL-5, 49.7 µM (inactive); in the test with SN12C, 66.1 µM (inactive); in the test on SNB-19 it was 25.6 µM (inactive); with SW-620 it was 24 µM (inactive); in the test with UACC-257 it was 40.4 µM (inactive). Besides, the GI50 in the test on UACC-62 was 41.9 µM (inactive).

In the case of `CC1SC(c2ccccc2)N(Nc2c3ccccc3nc3ccccc23)C1=O` (stereo not drawn), the GI50 in the test with CAKI-1 was 46.9 µM (inactive); with CCRF-CEM it was 69.8 µM (inactive); in the test with HCT-116, 75.3 µM (inactive); in the test on HCT-15, 51.8 µM; in the test on HOP-62, > 100 µM (inactive); with IGROV-1, 27 µM (inactive). The GI50 in the test on KM12 is 71.4 µM (inactive); with MOLT-4 it was 28.9 µM (inactive); with OVCAR-3, > 100 µM (inactive); with RPMI-8226, 58.7 µM (inactive); in the test on SF-268, > 100 µM (inactive); in the test with SF-295, 69 µM (inactive). For the same compound, the GI50 was > 100 µM (inactive) with SK-MEL-2; 38.4 µM (inactive) with SK-MEL-5; > 100 µM (inactive) in the test on SN12C; > 100 µM (inactive) with SNB-19; > 100 µM (inactive) in the test with SW-620; 83.6 µM (inactive) in the test on UACC-257. For the same compound, the GI50 with UACC-62 is 89.5 µM (inactive).

For the compound `O=C1c2cccc3c2C(=O)c2c(cccc21)OCCOCCOCCOCCO3`, the GI50 is 96.4 µM (inactive) with CAKI-1; 47.2 µM (inactive) in the test on CCRF-CEM; > 100 µM (inactive) in the test on HCT-116; more than 100 µM in the test on HCT-15; 74.5 µM (inactive) in the test with HL-60; > 100 µM (inactive) in the test with HOP-62. Moreover, the GI50 was > 100 µM (inactive) in the test on IGROV-1; 31.5 µM (inactive) in the test with MOLT-4; > 100 µM (inactive) in the test on OVCAR-3; 55.2 µM (inactive) in the test with RPMI-8226; > 100 µM (inactive) in the test on SF-268; > 100 µM (inactive) in the test on SF-295. Moreover, the GI50 with SK-MEL-2 is > 100 µM (inactive); in the test on SK-MEL-5, 75.7 µM (inactive); in the test on SN12C it was > 100 µM (inactive); in the test on SNB-19, > 100 µM (inactive); in the test with SW-620, > 100 µM (inactive); in the test with UACC-257, > 100 µM (inactive). In addition, in the test with UACC-62, the GI50 is > 100 µM (inactive).

For `CC1(CO)C(O)CCC2(C)C1CCC1CC3CC12CCC3(O)CO` (stereo not drawn), the GI50 in the test on CAKI-1 is 3.15 µM (inactive); in the test on CCRF-CEM, 2.84 µM (inactive); in the test on HCT-116, 2.39 µM (inactive); with HCT-15 it was more than 24.8 µM; in the test with HL-60, 0.433 µM (active); in the test on HOP-62, 1.04 µM (active). For the same compound, the GI50 with IGROV-1 was > 100 µM (inactive); with KM12, > 100 µM (inactive); with MOLT-4, 5.12 µM (inactive); in the test with OVCAR-3 it was > 88.3 µM (inactive); in the test on RPMI-8226, 2.31 µM (inactive); with SF-268, 8.36 µM (inactive). Moreover, the GI50 with SF-295 was 2.19 µM (inactive); in the test with SK-MEL-2, > 100 µM (inactive); in the test with SK-MEL-5 it was 5.83 µM (inactive); in the test with SN12C, 16.7 µM (inactive); with SNB-19, > 79.1 µM (inactive); in the test with SW-620 it was 9.75 µM (inactive). Further, the results for the GI50 in the test with UACC-257 and in the test on UACC-62 were > 81.3 µM (inactive) and 0.789 µM (active), respectively.

Regarding `CCCCCCCCCCCCCCCCCC(=O)OCC1OC(OC)C(NC(=O)N(CCCl)N=O)C(O)C1O` (stereo not drawn), the GI50 with CAKI-1 is > 100 µM (inactive); in the test with HCT-15 it was 36.1 µM; in the test with HOP-62, > 100 µM (inactive); with IGROV-1, 32.5 µM (inactive); with KM12 it was 24.8 µM (inactive); in the test on MOLT-4 it was 4.41 µM (inactive). Moreover, the GI50 in the test with OVCAR-3 was 26.9 µM (inactive); with RPMI-8226, 20.3 µM (inactive); with SF-268, 8.3 µM (inactive); with SF-295, 14.9 µM (inactive); in the test on SK-MEL-2, 45.9 µM (inactive); in the test with SK-MEL-5 it was 26.3 µM (inactive). Moreover, the GI50 is 11.4 µM (inactive) in the test on SN12C; 24.9 µM (inactive) with SNB-19; 14.1 µM (inactive) in the test with SW-620; 16.8 µM (inactive) in the test with UACC-257; 2.99 µM (inactive) with UACC-62.

For `C/C=C/c1cc(=O)c([C@@H]2OC(=O)c3cc(OC)cc(OC)c32)co1` [VERMISTATIN], the GI50 with CAKI-1 was 42.1 µM (inactive); in the test on CCRF-CEM, 24.1 µM (inactive); with HCT-116, 23.7 µM (inactive); in the test with HL-60, 27.4 µM (inactive); with HOP-62, 53 µM (inactive); in the test with IGROV-1, 37 µM (inactive). The GI50 in the test with KM12 is 31.6 µM (inactive); in the test on MOLT-4 it was 38.6 µM (inactive); with OVCAR-3, 20.7 µM (inactive); in the test with RPMI-8226 it was 35.4 µM (inactive); in the test with SF-268, 43.5 µM (inactive); in the test on SF-295, 39.5 µM (inactive). Also, the GI50 is 28.5 µM (inactive) in the test on SK-MEL-2; 50.5 µM (inactive) in the test on SK-MEL-5; > 100 µM (inactive) with SNB-19; 55.5 µM (inactive) in the test on SW-620; 29.1 µM (inactive) in the test with UACC-257; 25.9 µM (inactive) in the test on UACC-62.

The values above are taken from ChEMBL document CHEMBL1201862, “PubChem BioAssay data set” (2004).
